According to patent US20260242738A1, “ALK5 INHIBITORS FOR EFFICIENT DERIVATION OF MESENCHYMAL STEM CELLS FROM EMBRYONIC STEM CELLS” (SCRIPPS HEALTH, priority 2022, published 2026):

Columns and labels:
pluripotent stem cells = conditions: LLY-507 and AZD5153 combined, monolayer on Matrigel-coated plates; cited from earlier work
hiPSC = conditions: CHIR99021 and TTNPB used together; cited from earlier work
HADC 100 ES-MSC = experiment: Pellet culture chondrogenesis, histology and immunohistochemistry; assay type: cell-based, human; conditions: HADC 100 ES-MSC, 3 weeks, Safranin-O, collagen type I and II
Experimental: Monolayer-expanded ES-MSC (passage 2-5) were detached using Accutase® and 0.5×10^6 cells in 0.5 ml of chondrogenic medium were centrifuged at 900 rpm (~770 G) for 5 minutes to form high-density pellets. At least 5-6 pellets, for each ES-MSC condition, were cultured in serum-free chondrogenic medium consisting of Dulbecco's Modified Eagle Medium (Mediatech Inc., Manassas, VA), 1×ITS supplement (Sigma-Aldrich, St. Louis, MO), 100 nM Dexamethasone (Sigma), 1.25 mg/ml human serum albumin (Bayer, Leverkusen, Germany), 100 μM ascorbic acid 2-phosphate (Sigma), 1% penicillin/streptomycin/gentamycin (PSG, Gibco, Carlsbad, CA), and 10 ng/ml TGFβ3 (PeproTech, Rocky Hill, NJ). Pellets for ex vivo implantation were cultured for 3 days before implantation; pellets for histologic or gene expression analysis were maintained in culture for 3 weeks with media changes every 3 to 4 days.
Cell pellets and explants were fixed in Z-Fix (3.7% formaldehyde, Anatech Ltd., Battle Creek, MI), processed for embedding in paraffin, and cut into 4 μm-thick sections. Sections were stained with Safranin-O and Fast Green to visualize glycosaminoglycan distribution in the tissues. Alzarin Red S staining was used to detect the presence of mineralized matrix.
For assessment of collagen types I and II, sections were pretreated with pepsin (Digest-All 3, Thermo Fisher Scientific) for 9 minutes at 37° C. in a humid chamber before incubation at 4° C. for 12 to 16 hours with the following primary antibodies: rabbit anti-human collagen type I antibody (Ab 34710, Abcam, Cambridge, MA) 1 μg/ml; or mouse anti-human collagen type II (II-II6B3, Hybridoma Bank, University of Iowa) 2 μg/ml. For color development, the ImmPRESS secondary DAB (brown) or AP (red) kits (Vector Laboratories, Burlingame, CA) was used. Isotype controls were used to monitor non-specific staining.

[1] = test system: ex vivo osteoarthritic cartilage explants; experiment: Ex vivo human osteoarthritic cartilage defect repair with fibrin-ECM constructs or pellets; assay type: cell-based; conditions: implanted as hydrogel or pellets, 3 weeks, serum-free chondrogenic medium with TGFβ3 10 ng/ml
Experimental: Monolayer cultured ES-MSC were suspended in a hydrogel wafer composed of collagen II (Innovative Research Inc. Novi, MI), hyaluronate (Supartz FX sodium hyaluronate, Seikagaku Corp. Tokyo, Japan), chondroitin sulfate (Sigma-Aldrich) and fibrin (Baxter Healthcare, Deerfield, IL) at a density of 20×10^6 cells per ml. The fibrinogen and thrombin components were prepared separately. To each fibrinogen component, 2 mg/ml sodium hyaluronate, 2 mg/ml chondroitin sulfate and 6 mg/ml collagen II was added (2× concentration of final). Cells were added to the thrombin component at a density of 40×10^6 cells per ml. Thrombin and fibrinogen components in individual syringes were attached to a Baxter DUO mixing syringe and extruded to form the coagulated constructs. The constructs were either directly implanted into ex vivo cartilage tissue or coagulated in 6 well tissue culture plates for 4 to 8 minutes before 4-6 ml of chondrogenic medium was added. To prevent shrinkage of the constructs during culture, the gels were held on AdminPatch microneedle arrays (AdminMed, Sunnyvale, CA) for the duration of their culture.
Osteochondral tissues were obtained from patients ranging between 60 to 70 years of age undergoing total knee arthroplasty within 4-6 hours of surgery (approved by Scripps Institutional Review Board) as previous described. Cartilage disks (6 mm in diameter and ~2-3 mm thick) were harvested from the osteochondral specimens using a sterile dermal punch. The cartilage tissue was cultured in medium consisting of DMEM (Mediatech Inc., Manassas, VA) supplemented with 10% calf serum (Omega Scientific Inc., Tarzana, CA) and 1% Penicillin-Streptomycin-Gentamycin (Life Technologies, Carlsbad, CA). Cartilage disks were maintained in 6-well plates (2-4 per well) in 8 ml medium for 72 hours before creation of the surgical defect. A flame-sterilized stainless-steel burr was used create defects approximately 2×2 mm wide and 0.5 to 1 mm deep. These defects were filled with pellets or hydrogel constructs trimmed to size using 2 mm dermal biopsy punches. […]

[2] = test system: ex vivo human meniscus tissue; experiment: ES-MSC on growth factor conjugated collagen scaffolds implanted into ex vivo human meniscus defects; assay type: cell-based; conditions: growth factor conjugated scaffold, 2 weeks in vitro, 5 weeks in ex vivo meniscus defect; ES-MSC from SB525334
Experimental: In a similar experiment, meniscus cartilage-like tissues produced by seeding ES-MSC derived from ALK-5 inhibitor SB525334 upon blow spun collagen scaffolds were implanted into ex vivo human meniscus defects. ES-MSC were seeded upon a glutaraldehyde crosslinked pneumatospun collagen type I scaffold (3.5×1 mm disks) that was conjugated with growth factors (TGFb1, TGFb3 or PDGFbb) or unconjugated (control). After 2 weeks in differentiation medium in vitro, the disks were implanted into 3.5 mm defects formed in ex vivo human meniscus tissue and cultured for 5 weeks.

Molecule: COc1nnc2ccc(N3CCC(c4ccc(OCCN5CCN(C)C(=O)[C@H]5C)cc4)CC3)nn12 [AZD5153]
- induction of MSC phenotype (pluripotent stem cells): successfully induced MSC phenotype

Molecule: Cc1c[nH]c(-c2cnc(NCCNc3ccc(C#N)cn3)nc2-c2ccc(Cl)cc2Cl)n1 [CHIR99021]
- collagen type II immunocytochemical staining of chondroprogenitors (hiPSC): abundant collagen type II immunocytochemical staining

Molecule: O=C(NC1CCOCC1)c1ccc(-c2cc(-c3c[nH]nc3-c3ccccn3)ccn2)cc1 [GW788388]
- cartilage-like tissue formation in high density pellets (HADC 100 ES-MSC): also produced cartilage-like tissue
- cartilaginous neo-tissue formation in ex vivo osteoarthritic explants [1]: formed equally well

Molecule: Cc1cn(CCN2CCN(c3ccccc3-c3cc(C#N)cc(C(=O)NCCCN4CCCC4)c3)CC2)c2ccccc12 [LLY-507]
- induction of MSC phenotype (pluripotent stem cells): successfully induced MSC phenotype

Molecule: C/C(=C\c1ccc(C(=O)O)cc1)c1ccc2c(c1)C(C)(C)CCC2(C)C [TTNPB]
- collagen type II immunocytochemical staining of chondroprogenitors (hiPSC): abundant collagen type II immunocytochemical staining

Molecule: TGFβ1: growth factor conjugated to pneumatospun collagen type I scaffold
- collagen type of neo-meniscus like ECM [2]: higher in collagen type II

B1: TGFb3: growth factor conjugated to pneumatospun collagen type I scaffold (protein, UniProt P10600 301-412, looked up)
Transforming growth factor …: ALDTNYCFRNLEENCCVRPLYIDFRQDLGWKWVHEPKGYYANFCSGPCPYLRSADTTHSTVLGLYNTLNPEASASPCCVPQDLEPLTILYYVGRTPKVEQLSNMVVKSCKCS
modifications: conjugated to collagen type I scaffold
- collagen type of neo-meniscus like ECM [2]: higher in collagen type II

B2: PDGFbb: growth factor conjugated to pneumatospun collagen type I scaffold (protein, UniProt P01127 82-190, looked up)
Platelet-derived growth …: SLGSLTIAEPAMIAECKTRTEVFEISRRLIDRTNANFLVWPPCVEVQRCSGCCNNRNVQCRPTQVQLRPVQVRKIEIVRKKPIFKKATVTLEDHLACKCETVAAARPVT
modifications: BB homodimer; conjugated to collagen scaffold
- collagen type of neo-meniscus like ECM [2]: both collagen type I and II rich ECM
